# Measurements: patent publication US9296778B2, “3′,5′-cyclic phosphate prodrugs for HCV infection” (Idenix Pharmaceuticals, Inc., priority 2012, dated 2016)
# Read-outs that look alike come from different tables or passages of the source.
# Assays:
# [1] = system: HCV genotype 1b replicon; test: HCV Replicon Assay; format: cell-based; details: Zluc cells (Huh-7-derived, HCV genotype 1b replicon, luciferase reporter), 72 hours, read-out: HCV Replicon EC50
# How it was run: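 Zluc Huh-7 cells with HCV genotype 1b replicon and luciferase reporter treated with 5-fold dilutions (100 μM to 0.0000512 μM final) in duplicate, or at 1 and 10 μM. Luminescence read with ONE-glo; EC50 from dose-response fits, or % inhibition at the fixed concentrations.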
# [2] = Stability in simulated intestinal fluid; format: in vitro ADME; details: 100 μM, 2 hours at 37° C., percent of the peak area at time zero
# Procedure: (§1) Simulated gastric and intestinal fluids containing pepsin and pancreatin respectively were prepared according to the U.S. Pharmacopoeia USP291 procedure (www.pharmacopeia.cn/v29240/usp29nf24s0_ris1s126.html). Compounds (final concentration 100 μM) were incubated in duplicate in the appropriate fluid for 2 hours at 37° C. The samples were quenched with 200 μl cold acetonitrile, vortexed for 30 seconds and then centrifuged at 16,100 g for 10 min. The supernatants were analyzed by HPLC on a C-18 column with UV detection at 252 nm. The time 0 samples were prepared by adding SGF or SIF fluid to the quenching solvent followed by the test compound. Stability of the compounds was determined by peak area of the test compounds after incubation and calculated as percent of the peak area observed at time zero.
# [3] = Stability in fresh human whole blood; format: in vitro ADME; details: 0.5 μM, percent unchanged test compound
# Procedure: (§2) Stability of compounds were determined in fresh human whole blood with K2EDTA as the anticoagulant (stored refrigerated at 2-8° C. and used within 7 days of receipt). The experiment was conducted with three replicates for each time point. Whole blood, pre-incubated at 37° C. for 10-15 minutes, was fortified with a solution of test compound for a final concentration of 0.5 μM and mixed for 30 sec. At intervals (0, 0.5, 1 and 2 hr), three 50 μL aliquots were combined with 200 μL (each) of an ice-cold solution of the internal standard (carbutamide 500 ng/mL in acetonitrile). The samples were vortexed for 30 sec and then centrifuged at 16,100 g for 5 min. The supernatant was analyzed by LC-MS/MS. The MS peak area ratio of the test compounds versus the internal standard was calculated and percent unchanged test compound was calculated for each time point using this ratio.
# [4] = Stability in mouse blood; format: in vitro ADME; details: on ice, percent unchanged test compound
# Procedure: as §2
# The stability in mouse blood was determined on ice at 0, 0.5 and 1 hr as herein.
# [5] = system: fresh human hepatocytes; test: Release of active metabolite in fresh human hepatocytes; format: in vitro ADME; details: 10 μM compound; for FHH TP Cmax: fresh human hepatocytes; for FHH TP AUC: fresh human hepatocytes, 6, 24 and 48 hours
# How it was run: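 Overnight-acclimatized hepatocytes (0.8 million cells/well human, 0.5 million mouse) incubated at 37 °C with 10 μM test compound (0.1% DMSO). Sampled at 6, 24, 48 h (human) or 1, 4, 8, 12, 24 h (mouse); cells washed, extracted in cold 70% methanol, intracellular content quantified by LC-MS/MS with internal standard.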
# [6] = system: mouse hepatocytes; test: Release of active metabolite in mouse hepatocytes; format: in vitro ADME; details: 10 μM compound; for MsH Cmax: mouse hepatocytes; for MsH AUC: mouse hepatocytes, 1, 4, 8, 12 and 24 hours
# Procedure: Plates of fresh human and mouse hepatocytes were obtained on ice. The medium was removed and replaced with hepatocyte culture medium (William's E supplemented with penicillin-streptomycin, 1% L-glutamine, 1% insulin-transferrin-selenium and 0.1 μM Dexamethasone (Invitrogen) or with Invitro GRO HI medium complemented with Torpedo antibiotics (Celsis)). Cells were left overnight in an incubator at 37° C. to acclimatize to culture and the medium.
# Hepatocyte incubations were conducted at a final volume of 0.5 mL hepatocyte culture medium/well (0.8 million cells/well for human and 0.5 million cells/well for mouse; 12 well plate no overlay, collagen coat). Culture medium from overnight incubation of cells was removed and replaced with fresh medium, pre-warmed to 37° C., containing 10 μM of test compound from a stock solution in DMSO (final DMSO concentration was 0.1%). At each specific time point, incubation medium was removed and cell monolayers were carefully washed two times with ice-cold PBS. Following the last wash, all PBS was carefully removed and 1.0 mL of extraction solution (ice-cold 70% methanol/30% water) added. Cells were scraped off and suspended in the extraction solution, transferred to 2 mL polypropylene microfuge tubes and intracellular contents extracted overnight at −20° C.
# After the overnight treatment the cellular extracts were prepared by centrifugation at 16,000×g for 10 min to remove cellular debris. The remaining sample was then dried using a refrigerated centrivap concentrator. Dry extracts were reconstituted in 1000 μL of HPLC-grade water and centrifuged at 16,000×g for 10 min. Aliquots (100 μL each) of the supernatant were transferred into a 96 well plate and internal standard (4 ng/mL final concentration) was added as the internal standard (IS) for LC-MS/MS analysis.
# The incubation time points were 6, 24 and 48 hours for human hepatocytes and 1, 4, 8, 12 and 24 hours for mouse hepatocytes.
# [7] = Plasma pharmacokinetics following a single oral dose in CD-1 mice; format: in vivo; details: single oral dose 25 mg/kg in PEG 200, CD-1 male mice; given at 1 μmol/kg; 25 mg/kg
# Procedure: (§3) A single oral dose of test compound at 25 mg/kg in PEG 200 (dose volume 5 mL/kg) was administered to nine CD-1 male mice. Five untreated animals were used for the collection of control plasma and liver. Terminal plasma and liver samples were collected from three animals per time point at 4, 12 and 24 hours post dose. Liver specimens were collected from all animals immediately after the incision. Freezing forceps stored in liquid nitrogen were used to freeze the liver before excision.
# Plasma samples were analyzed for 2′-methylguanosine (2′-MeG) by LC-MS/MS. The internal standard (IS) was 2′-MeG-D3. For protein precipitation and extraction, each plasma sample (50 μL) was treated with 500 μL of 0.2% formic acid in acetonitrile and 20 μL of the internal standard working solution. After vortexing and centrifugation, 500 μL of the sample extracts were transferred to a new plate, dried under N2 at ˜28° C. and reconstituted with 75 μL of 0.2% FA in water. The extracts were chromatographed on an Aquasil C18 column using a gradient system of 0.2% formic acid in water and acetonitrile. The analytes were detected and quantified by tandem mass spectrometry in positive ion mode on an MDS Sciex API5000 equipped with a Turbo Ionspray® interface. The calibration range was 0.500 (LLOQ) to 200 ng/mL in mouse plasma.
# [8] = Liver pharmacokinetics following a single oral dose in CD-1 mice; format: in vivo; details: single oral dose 25 mg/kg in PEG 200, CD-1 male mice; given at 1 μmol/kg; 25 mg/kg
# Procedure: as §3
# Liver samples were analyzed for the active species 2′-methylguanosine triphosphate (2′-MeGTP) by LC-MS/MS. 2′-MeGTP levels were assayed by homogenizing (on ice) a known weight of mouse liver with 4× volume of 0.95 M trichloroacetic acid (TCA). Internal standard solution was added to the homogenate followed by neutralization with 20% ammonium hydroxide solution and addition of 500 μL 1% formic acid. The tissue samples were extracted by weak anion exchange solid phase extraction (SPE). Post extraction, the eluates were evaporated under nitrogen, followed by reconstitution before injection onto the LC-MS/MS system. The samples were chromatographed on a Luna NH2 column using a gradient system of ammonium acetate (1 mM to 20 mM and pH 8.0 to pH 10.0) in water and acetonitrile (70:30). The analyte was detected and quantified by tandem mass spectrometry in positive ion mode on an API4000 equipped with a Turbo Ionspray® interface. The calibration range was 10 to 10000 pmol/mL in mouse liver homogenate (50 to 50000 pmol/g of mouse liver).
# [9] = system: Zluc cells; test: cytotoxicity evaluation (CellTiter-Blue Cell Viability Assay); details: read-out: HCV Replicon CC50; Zluc cells, CellTiter-Blue
# [10] = Stability in simulated gastric fluid; format: in vitro ADME; details: 100 μM, 2 hours at 37° C., percent of the peak area at time zero
# Procedure: as §1
# [11] = in vitro; details: human, HCV Replicon CC50, Zluc cells, CellTiter-Blue
Compound,EC50 [1] [µM],Stability SIF [2] [%],Stability WB_Human (37° C.; 2 hr) [3] [%],Stability WB_Mouse (ice; 1 hr) [4] [%],FHH TP Cmax [5],FHH TP AUC [5],MsH Cmax [6] [pmol/mill cells],MsH AUC [6] [pmol · hr/mill cells],Ms Plasma 2′-MeG AUC [7] [pmol · hr/mL at 1 μmol/kg],Ms Plasma 2′-MeG Cmax [7] [pmol/mL at 1 μmol/kg],Ms Liver 2′-MeGTP AUC [8] [pmol · hr/g at 1 μmol/kg],CC50 [9] [µM],Stability SGF [10] [%],"EC50 ([1]; Hepatitis C virus, 72 h) [µM]",CC50 [11] [µM]
"CCOc1nc(N)nc2c1ncn2[C@@H]1O[C@@H]2COP(=O)(OCCSC(=O)C(C)(C)CO)O[C@H]2[C@@]1(C)O (single isomer, unassigned) [Compound 4 Diastereomer 2]",< 0.25,77,59,105,681 pmol/mill cells,24086 pmol · hr/mill cells,386,13328,24,1.7,1100,< 50,–,–,–
"CCOc1nc(N)nc2c1ncn2[C@@H]1O[C@@H]2COP(=O)(OC[C@H](C)NC(=O)OC)O[C@H]2[C@@]1(C)F (single isomer, unassigned; diastereomer 2) [Compound 9 Diastereomer 2]",< 0.25,105,85,–,BLD^a,BLD^a,–,–,–,–,–,> 50,85,–,–
"CCOc1nc(N)nc2c1ncn2[C@@H]1O[C@@H]2COP(=O)(OCCSSC(C)(C)C)O[C@H]2[C@@]1(C)F (single isomer, unassigned) [Compound 24 Diastereomer 2]",< 0.25,47,73,–,105 pmol/mill cells,3031 pmol · hr/mill cells,–,–,–,–,–,< 50,30,–,–
"CCOc1nc(N)nc2c1ncn2[C@@H]1O[C@@H]2COP(=O)(OCCSSC(C)(C)C)O[C@H]2[C@@]1(C)F (single isomer, unassigned) [Compound 24 Diastereomer 1]",–,90,91,–,154 pmol/mill cells,3399 pmol · hr/mill cells,–,–,–,–,–,–,87,< 0.25,< 50
"CCOc1nc(N)nc2c1ncn2[C@@H]1O[C@@H]2COP(=O)(OCCSC(=O)C(C)(C)CO)O[C@H]2[C@@]1(C)F (single isomer, unassigned) [Compound 5 Diastereomer 1]",–,86,82,99,204 pmol/mill cells,7185 pmol · hr/mill cells,374,9866,97,8.1,1200,–,108,< 0.25,> 50
"CCOc1nc(N)nc2c1ncn2[C@@H]1O[C@@H]2COP(=O)(OCCCC(=O)OC(C)C)O[C@H]2[C@@]1(C)O (single isomer, unassigned) [Compound 1 Diastereomer 2]",< 0.25,83,87,1,278 pmol/mill cells,10125 pmol · hr/mill cells,330,8363,68,8.6,7400,< 50,–,–,–
